Assay results from article PMC13181761, “New Analogs of the Compstatin Family of Clinical Complement Inhibitors with Low Picomolar Target Affinity” (Journal of Medicinal Chemistry, 2026).
Where “and” joins values, the source holds several entries; their conditions need not be identical. Equal entries are not always repeated. Where two headings read alike, the source gives them in different places. Where a SMILES comes first, the peptide text is derived from it. Bridges are numbered along the chain shown (N, C = ends).

Columns and labels:
[1] = molecular target: T1, human C3b (Homo sapiens, UniProt P01024); assay: SPR kinetic binding to immobilized human C3b; settings: K D determined as steady state affinity, read-out: K D, affinity hC3b, steady state affinity
T1 construct: purchased Complement Technology, Tyler, TX, USA

[2] = molecular target: T1, human C3b; assay: SPR kinetic binding to immobilized human C3b; settings: for k a, affinity hC3b / k d, affinity hC3b / Kd: SPR, 1:1 Langmuir fit, average of 3 independent experiments, SD in brackets; for Kd: read-out: K D, affinity hC3b
Experimental: Experiments were conducted at 25 °C in HBST buffer (10 mM HEPES, 150 mM NaCl, and 0.05% Tween-20, pH 7.4; XanTec bioanalytics). Human C3b (Complement Technology, Tyler, TX, USA) was immobilized via amine-reactive coupling. […] Individual peptide samples were injected for 120 s, followed by a 180 s dissociation phase. […] Signals from the reference cell and buffer blank injections were subtracted within each dilution series to correct for buffer effects and injection artifacts. Data were fitted to a Langmuir 1:1 binding model to calculate association (k a) and dissociation (k d) rate constants, and the equilibration constant K D is calculated based on the equation: K D = k d/k a. In the case of Cp40 derivatives and Cp60, a single-cycle approach was used for kinetic analysis by injecting 5 increasing concentrations of each compound (0.5-40 nM) consecutively without a regeneration period in between injections. Individual injections within a cycle were 120 s long with a 5 min dissociation phase between injections. […] Analog Cp40 was included in each experimental series as a reference and internal control. Signals from the reference cell and buffer blank injections were subtracted to correct for buffer effects and injection artifacts. Kinetic data were processed in BiaEvaluation (Cytiva) using single-cycle evaluation by global fitting each data set to a Langmuir 1:1 binding model. The reported kinetic parameters (Tables and ) indicate the mean values and standard deviations of three independent experiments. SPR sensorgrams are provided in the Supporting Information.

[3] = first-in-human trials, cited from earlier work
[4] = system: classical pathway complement activation; assay: Classical pathway (CP) complement activation ELISA in normal human serum; type: biochemical; settings: for IC50: CP ELISA
Experimental: The inhibitory activity of selected peptides in preventing pathway-specific complement activation was evaluated using ELISA as previously described. All assays used normal human serum (NHS), pooled from five unrelated, anonymized healthy donors, obtained with informed consent according to the local ethics committee, and following the guidelines of the Declaration of Helsinki (Blutspendezentrum Basel, Switzerland). To assess classical pathway activity, flat-bottom MaxiSorp 96-well plates (Thermo Fisher) were coated overnight at room temperature with 33 μg/mL IgM (Sigma) in a 0.1 M sodium carbonate buffer. Plates were washed 5 times with phosphate-buffered saline (Dubleccòs, Bioconcept) supplemented with 0.05% Tween-20 (PBS-T). Serial dilutions of peptides were prepared in 1% (v/v) NHS using HBBT++ assay buffer (10 mM HEPES, 150 mM NaCl, pH 7.4, 0.5% BSA, 0.15 mM CaCl2, 0.5 mM MgCl2, 0.1% Tween-20), with samples diluted in 1% (v/v) NHS. Negative controls included each inhibitor in assay buffer alone, assay buffer only, and 1% (v/v) NHS with 10 mM EDTA. HBBT++ with 1% (v/v) pooled NHS served as the 100%-control. After incubating for 1 h at 37 °C and shaking at 700 rpm, plates were washed 5 times with PBS-T. Next, 100 μL of biotinylated monoclonal mouse antihuman TCC antibody (1:1000, Hycult, clone: aE11) to detect terminal complement complexes was added to each well, followed by 1 h incubation at room temperature while shaking. After another 5 washes with PBS-T, 100 μL of HRP-conjugated NeutrAvidin (1:10,000, Invitrogen) was added to each well and incubated for 20 min at room temperature while shaking. Plates were washed 5 more times with PBS-T before adding 100 μL of 1-Step Turbo TMB-ELISA solution (Thermo Scientific) to each well. The reaction was allowed to develop until a light blue color appeared, and then stopped with 100 μL of 2 M sulfuric acid. Colorimetric detection was performed at 450 nm by using a plate reader (Synergy HT, Biotek). All assays were conducted in triplicate and normalized against 100% (no inhibitor, 1% (v/v) serum in buffer) and 0% (1% (v/v) serum in EDTA buffer) controls. In the cases of Cp60 and Cp40, 5% (v/v) NHS was used instead of 1% (v/v) NHS in some assays. Inhibition curves were fitted using nonlinear regression to a normalized variable slope model in Prism (v9-10, GraphPad).

[5] = system: alternative pathway complement activation; assay: Alternative pathway (AP) complement activation ELISA in normal human serum; type: biochemical; settings: diluted human serum (figure legends 1%; method 10% NHS)
Experimental: The inhibitory activity of selected peptides in preventing pathway-specific complement activation was evaluated using ELISA as previously described. All assays used normal human serum (NHS), pooled from five unrelated, anonymized healthy donors, obtained with informed consent according to the local ethics committee, and following the guidelines of the Declaration of Helsinki (Blutspendezentrum Basel, Switzerland).
The activity of selected peptides in preventing the activation of the alternative pathway was evaluated by analogy to the classical pathway ELISA described above, with some adjustments. Flat-bottom PolySorb 96-well plates (Thermo Fisher) were coated overnight at room temperature with 40 μg/mL lipopolysaccharide from Salmonella enteritidis (Sigma-Aldrich) in 0.1 M sodium carbonate buffer and washed 5 times with PBS-T. Serial dilutions of peptides were prepared in 10% (v/v) pooled NHS using HBBT + assay buffer (10 mM HEPES, 150 mM NaCl, pH 7.4, 0.5% BSA, 5 mM EGTA, 5 mM MgCl2, and 0.1% Tween-20), with samples diluted in 10% (v/v) NHS. Negative controls included each inhibitor in assay buffer alone, assay buffer only, and 10% (v/v) serum with 10 mM EDTA. HBBT+ with 10% (v/v) pooled NHS served as the 100%-control. Subsequent steps were performed as described above.

T1 sequence (P01024 23-667 limits assumed): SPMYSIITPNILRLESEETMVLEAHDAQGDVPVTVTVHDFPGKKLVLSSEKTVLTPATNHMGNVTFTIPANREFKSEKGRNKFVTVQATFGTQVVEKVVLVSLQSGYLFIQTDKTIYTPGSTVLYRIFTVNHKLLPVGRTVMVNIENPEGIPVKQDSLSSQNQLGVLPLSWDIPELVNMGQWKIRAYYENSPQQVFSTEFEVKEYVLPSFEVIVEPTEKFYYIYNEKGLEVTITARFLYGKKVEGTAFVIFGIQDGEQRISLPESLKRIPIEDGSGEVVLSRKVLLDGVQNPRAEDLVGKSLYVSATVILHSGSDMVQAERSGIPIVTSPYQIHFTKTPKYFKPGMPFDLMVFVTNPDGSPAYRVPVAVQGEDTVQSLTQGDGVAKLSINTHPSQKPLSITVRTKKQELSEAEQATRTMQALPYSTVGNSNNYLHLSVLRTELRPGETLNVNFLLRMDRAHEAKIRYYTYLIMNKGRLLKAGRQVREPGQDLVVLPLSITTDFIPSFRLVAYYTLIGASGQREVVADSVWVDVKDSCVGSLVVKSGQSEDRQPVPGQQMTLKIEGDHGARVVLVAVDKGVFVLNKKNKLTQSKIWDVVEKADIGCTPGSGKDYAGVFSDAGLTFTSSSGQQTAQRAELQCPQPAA
T1 sequence (P01024 749-1663 partner limits assumed): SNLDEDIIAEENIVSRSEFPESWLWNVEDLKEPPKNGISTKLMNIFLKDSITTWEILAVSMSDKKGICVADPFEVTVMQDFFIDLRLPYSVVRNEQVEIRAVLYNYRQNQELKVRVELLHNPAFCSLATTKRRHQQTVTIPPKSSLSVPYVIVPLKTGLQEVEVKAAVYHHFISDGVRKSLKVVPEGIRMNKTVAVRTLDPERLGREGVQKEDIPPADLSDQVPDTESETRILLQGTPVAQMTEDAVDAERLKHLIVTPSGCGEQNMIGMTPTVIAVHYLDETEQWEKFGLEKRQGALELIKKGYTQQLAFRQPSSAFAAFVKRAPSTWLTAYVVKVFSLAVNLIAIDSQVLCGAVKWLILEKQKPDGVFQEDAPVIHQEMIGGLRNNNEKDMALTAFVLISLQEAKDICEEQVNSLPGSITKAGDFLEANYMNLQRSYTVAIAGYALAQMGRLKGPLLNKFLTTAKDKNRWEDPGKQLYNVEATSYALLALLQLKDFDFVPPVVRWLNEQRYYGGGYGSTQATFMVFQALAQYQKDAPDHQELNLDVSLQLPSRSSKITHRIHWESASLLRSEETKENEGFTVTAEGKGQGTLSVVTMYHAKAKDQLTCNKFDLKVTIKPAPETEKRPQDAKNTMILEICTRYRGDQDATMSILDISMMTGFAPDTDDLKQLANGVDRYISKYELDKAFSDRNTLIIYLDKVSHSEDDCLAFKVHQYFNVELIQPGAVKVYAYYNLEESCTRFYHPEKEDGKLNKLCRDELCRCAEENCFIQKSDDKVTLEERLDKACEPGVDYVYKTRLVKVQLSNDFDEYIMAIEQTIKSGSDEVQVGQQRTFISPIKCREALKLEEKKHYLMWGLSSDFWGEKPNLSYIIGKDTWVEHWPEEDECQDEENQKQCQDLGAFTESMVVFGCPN

Row | Compound | Kd [1] [µM] | k a, affinity hC3b [2] | k d, affinity hC3b [2] | k d, affinity hC3b ([2]; listed as Cp40 Val) | Kd [2] | immunogenicity [3] | safety profile ([3]; single and multiple doses via different routes) | IC50 ([4]; 5% human serum) [µM] | IC50 [5] [µM] | fold improvement in affinity compared with Cp01 ([2]; K D ratio vs Cp01) [fold] | IC50 ([4]; 1% diluted normal human serum, listed as Cp01-V3I) [µM] | fold enhanced potency for inhibiting complement activation in vitro vs Cp01 ([4]; IC50 ratio vs Cp01)
1 | CC[C@@H](C)[C@@H]1NC(=O)[C@@H](NC(=O)[C@@H](NC(C)=O)[C@@H](C)CC)CSSC[C@@H](C(=O)N[C@H](C(N)=O)[C@@H](C)O)NC(=O)[C@H](CCCNC(=N)N)NC(=O)[C@H](Cc2c[nH]cn2)NC(=O)[C@H](C)NC(=O)CNC(=O)[C@H](Cc2c[nH]c3ccccc23)NC(=O)[C@H](CC(=O)O)NC(=O)[C@H](CCC(N)=O)NC(=O)[C@H](Cc2c[nH]c3ccccc23)NC1=O [Cp01-Val3aIle] | 0.545 |  |  |  |  |  |  |  |  |  |  | 
2 | CC[C@H](C)[C@H](NC(=O)[C@H](N)Cc1ccc(O)cc1)C(=O)N[C@H]1CSSC[C@@H](C(=O)N(C)[C@H](C(N)=O)[C@@H](C)CC)NC(=O)[C@H](CCCNC(=N)N)NC(=O)[C@H](Cc2c[nH]cn2)NC(=O)[C@H](C)NC(=O)CN(C)C(=O)[C@H](Cc2c[nH]c3ccccc23)NC(=O)[C@H](CC(=O)O)NC(=O)[C@H](CCC(N)=O)NC(=O)[C@H](Cc2cn(C)c3ccccc23)NC(=O)[C@H](C(C)C)NC1=O [Cp40, reference compound] |  | 17.6(0.3) 10^5 M^–1 s^–1 | 0.1 10^–2 s^–1 | 0.1(0.0) 10^–2 s^–1 | 0.0007 µM | no evidence of drug-related immunogenicity or increase in antidrug antibodies | good safety profile | 0.158 |  |  |  | 
3 | CC[C@H](C)[C@H](NC(C)=O)C(=O)N[C@H]1CSSC[C@@H](C(=O)N[C@H](C(N)=O)[C@@H](C)O)NC(=O)[C@H](CCCNC(=N)N)NC(=O)[C@H](Cc2c[nH]cn2)NC(=O)[C@H](C)NC(=O)CNC(=O)[C@H](Cc2c[nH]c3ccccc23)NC(=O)[C@H](CC(=O)O)NC(=O)[C@H](CCC(N)=O)NC(=O)[C@H](Cc2c[nH]c3ccccc23)NC(=O)[C@H]([C@@H](C)CC)NC1=O [Cp01-Val3Ile] (Ac-ICIWQDWGAHRCT-NH2; disulfide 2-12) |  | 8.8(0.1) 10^5 M^–1 s^–1 | 1.7(0.1) 10^–2 s^–1 |  | 0.02 µM and 0.0198 µM |  |  |  | 0.2 | ~10 | 0.43 | up to 40 fold
